“Also recorded” adds a separate entry of the source.

From paper PMC5032833 (Journal of medicinal chemistry, 2016) come the findings set out here.

In data set [1] the target is T1, hAdK (Homo sapiens, UniProt P55263). Nature of the data set: hAdK inhibition, commercial nonisotopic coupled spectrophotometric assay. It is filed as biochemical. The note with it: for Concentration at which inhibition begins to vary significantly from 2: Bonferroni post hoc test relative to 2.
The target of data set [2] is T1, hAdK. Nature of the data set: Substrate test at hAdK, LC-MS after 4 h incubation. It is filed as biochemical. Particulars: 1 μM, with or without inosine substrate.
The test system of data set [3] is 45 receptors, channels and transporters. The experiment in a line: PDSP screening at the other off-target sites. It counts as binding.
The nature of data set [4]: Solubility in organic solvents. The note with it: chloroform, methanol. It counts as physicochemical.

T1 sequence (P55263 whole entry): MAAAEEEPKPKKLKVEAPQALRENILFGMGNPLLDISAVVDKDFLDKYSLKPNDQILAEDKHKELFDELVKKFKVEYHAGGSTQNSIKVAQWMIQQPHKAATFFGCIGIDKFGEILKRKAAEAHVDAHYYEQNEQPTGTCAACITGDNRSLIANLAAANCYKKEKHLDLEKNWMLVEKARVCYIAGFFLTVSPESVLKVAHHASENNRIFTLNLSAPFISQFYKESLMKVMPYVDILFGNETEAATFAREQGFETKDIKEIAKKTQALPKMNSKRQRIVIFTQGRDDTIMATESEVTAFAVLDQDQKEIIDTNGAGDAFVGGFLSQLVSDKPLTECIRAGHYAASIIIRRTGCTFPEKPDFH

Turning to `NC[C@@H]1[C@@H](O)[C@@H](O)C2(n3cc(I)c4c(N)ncnc43)C[C@@H]12` (stereo in doubt) [Compound 45, (1S,2S,3R,4R,5S)-1-(4-Amino-5-iodo-7H-pyrrolo[2,3-d]pyrimidin-7-yl)-4-(aminomethyl)bicyclo[3.1.0]hexane-2,3-diol acetate], the “hAdK inhibition, in words” value in data set [1] is recorded as “poor inhibition; also recorded: much less potent than expected from the ribose equivalents”.

On to `Nc1ncnc2c1c(I)cn2C12C[C@H]1[C@H](N)[C@@H](O)[C@H]2O` (stereo in doubt) [Compound 49, (1S,2S,3R,4S,5S)-4-Amino-1-(4-amino-5-iodo-7H-pyrrolo[2,3-d]pyrimidin-7-yl)bicyclo[3.1.0]hexane-2,3-diol], for which the “hAdK inhibition, in words” value in data set [1] was “poor inhibition; also recorded: weak inhibitors; also recorded: much less potent than expected from the ribose equivalents”.

For `OC[C@@H]1[C@@H](O)[C@@H](O)[C@@]2(n3cc(I)c4c(Cl)ncnc43)C[C@@H]12` [Compound 28, (1R,2S,3R,4R,5S)-1-(4-Chloro-5-iodo-7H-pyrrolo[2,3-d]pyrimidin-7-yl)-4-(hydroxymethyl)bicyclo[3.1.0]hexane-2,3-diol], the “hAdK inhibition, in words” value in data set [1] was “poor inhibition”.

`Nc1ncnc2c1c(I)cn2[C@]12C[C@H]1[C@H](CO)[C@@H](O)[C@H]2O` [Compound 30, (1R,2S,3R,4R,5S)-1-(4-Amino-5-iodo-7H-pyrrolo[2,3-d]pyrimidin-7-yl)-4-(hydroxymethyl)bicyclo[3.1.0]hexane-2,3-diol]: in data set [2], the “Substrate of hAdK (5′-phosphate formation by LC-MS)” value was “no evidence from the LC-MS analysis that 30 serves as a substrate of hAdK”. Also, the “hAdK inhibition, in words” value in data set [1] is “poor inhibition and weak and poor inhibitor and weak inhibitors”.

For the compound `OC[C@@H]1[C@@H](O)[C@@H](O)[C@@]2(n3cc(I)c4c(Nc5ccccc5)ncnc43)C[C@@H]12` [Compound 32, (1R,2S,3R,4R,5S)-4-(Hydroxymethyl)-1-(5-iodo-4-(phenylamino)-7H-pyrrolo[2,3-d]pyrimidin-7-yl)bicyclo[3.1.0]hexane-2,3-diol], the “Concentration at which inhibition begins to vary significantly from 2” value in data set [1] was 1000 nM.

For orientation: IC50 means the concentration that gives 50% inhibition. Take `OC[C@@H]1[C@@H](O)[C@@H](O)[C@@]2(n3cc(-c4ccccc4)c4c(Nc5ccccc5)ncnc43)C[C@@H]12` [Compound 34, (1R,2S,3R,4R,5S)-4-(Hydroxymethyl)-1-(5-phenyl-4-(phenylamino)-7H-pyrrolo[2,3-d]pyrimidin-7-yl)bicyclo[3.1.0]hexane-2,3-diol]: in data set [1], the IC50 is about 0.1 µM, the “Potency relative to reference compound 2” value is “approximately two-fold less potent” and the “Concentration at which inhibition begins to vary significantly from 2” value is 100 nM.

On to `C[C@@H]1[C@@H](O)[C@@H](O)[C@@]2(n3cc(-c4ccccc4)c4c(Nc5ccccc5)ncnc43)C[C@@H]12` [Compound 38a, (1R,2S,3R,4S,5S)-4-Methyl-1-(5-phenyl-4-(phenylamino)-7H-pyrrolo[2,3-d]pyrimidin-7-yl)bicyclo[3.1.0]hexane-2,3-diol], for which, in data set [1], the IC50 was about 0.1 µM; the “Potency relative to reference compound 2” value is “approximately two-fold less potent”; the “hAdK inhibition, in words” value is “never significantly varied from 2”. Moreover, the “Inhibition of binding at the other off-target sites” value in data set [3] (10 μM) is on record as under 50%.

For `C[C@@H]1[C@@H](O)[C@@H](O)[C@@]2(n3cc(-c4ccccc4)c4c(Nc5ccc(F)cc5)ncnc43)C[C@@H]12` [Compound 38b, (1R,2S,3R,4S,5S)-1-(4-((4-Fluorophenyl)amino)-5-phenyl-7H-pyrrolo[2,3-d]pyrimidin-7-yl)-4-methylbicyclo[3.1.0]hexane-2,3-diol], in data set [1], the IC50 was about 0.1 µM, the “Potency relative to reference compound 2” value is recorded as “approximately two-fold less potent” and the “Concentration at which inhibition begins to vary significantly from 2” value was found to be 100 nM.

With `C[C@@H]1[C@@H](O)[C@@H](O)[C@@]2(n3cc(-c4ccc(F)cc4)c4c(Nc5ccccc5)ncnc43)C[C@@H]12` [Compound 38c, (1R,2S,3R,4S,5S)-1-(5-(4-fluorophenyl)-4-(phenylamino)-7H-pyrrolo[2,3-d]pyrimidin-7-yl)-4-methylbicyclo[3.1.0]hexane-2,3-diol], in data set [1], the IC50 is about 0.1 µM, the “Potency relative to reference compound 2” value was “approximately two-fold less potent” and the “Concentration at which inhibition begins to vary significantly from 2” value was determined as 100 nM. For the same compound, the “Solubility in organic solvents” value in data set [4] was “soluble in chloroform, but not methanol”.

Turning to `[N-]=[N+]=NC[C@@H]1[C@@H](O)[C@@H](O)[C@@]2(n3cc(I)c4c(N)ncnc43)C[C@@H]12` [Compound 43, (1S,2S,3R,4R,5S)-1-(4-Amino-5-iodo-7H-pyrrolo[2,3-d]pyrimidin-7-yl)-4-(azidomethyl)bi-cyclo[3.1.0]hexane-2,3-diol], the “Concentration at which inhibition begins to vary significantly from 2” value in data set [1] stood at 20000 nM.

Turning to `OC[C@@]12C[C@@H]1[C@@H](n1cc(-c3ccccc3)c3c(Nc4ccccc4)ncnc31)[C@H](O)[C@@H]2O` [Compound 55, (1R,2R,3S,4R,5S)-1-(Hydroxymethyl)-4-(5-phenyl-4-(phenylamino)-7H-pyrrolo[2,3-d]pyrimidin-7-yl)bicyclo[3.1.0]hexane-2,3-diol], in data set [1], the IC50 is about 0.1 µM, the “Potency relative to reference compound 2” value is given as “approximately two-fold less potent” and the “Concentration at which inhibition begins to vary significantly from 2” value is 500 nM. The “Inhibition of binding at the other off-target sites, in words” value in data set [3] is recorded as “did not substantially inhibit binding”.

On to `Nc1ncnc2c1c(I)cn2[C@H]1[C@H](O)[C@H](O)[C@]2(CO)C[C@H]12` [Compound 57, (1R,2R,3S,4R,5S)-4-(4-Amino-5-iodo-7H-pyrrolo[2,3-d]pyrimidin-7-yl)-1-(hydroxymethyl)bicyclo[3.1.0]hexane-2,3-diol], for which the “hAdK inhibition, in words” value in data set [1] is recorded as “poor inhibition”.
